Measured values as given in patent publication US10512634B2, “Benzimidazole derivates useful as inhibitors of mammalian histone deacetylase activity” (KANCERA AB, priority 2015, dated 2019).
pIC50: −log10 of the molar value. Where a name gives a salt, the structure may show the parent alone. Read-outs that look alike come from different tables or passages of the source. Blank lines part the entries; values can stand above or below the compound they belong to.

Tests used:
[1] = target: HDAC4 (Homo sapiens (Human), UniProt P56524); test: HDAC in vitro enzymatic assay (full HDAC panel); conditions: read-out: IC50 HDAC4, top concentration 10 μM
[2] = target: HDAC3 (Homo sapiens (Human), UniProt O15379); test: HDAC in vitro enzymatic assay (fluorescence); conditions: read-out: IC50 HDAC3
[3] = target: HDAC11 (Homo sapiens (Human), UniProt Q96DB2); test: HDAC in vitro enzymatic assay (full HDAC panel); conditions: read-out: IC50 HDAC11, top concentration 10 μM
[4] = target: HDAC9 (Homo sapiens (Human), UniProt Q9UKV0); test: HDAC in vitro enzymatic assay (full HDAC panel); conditions: read-out: IC50 HDAC9, top concentration 10 μM
[5] = target: HDAC7 (Homo sapiens (Human), UniProt Q8WUI4); test: HDAC in vitro enzymatic assay (full HDAC panel); conditions: read-out: IC50 HDAC7, top concentration 10 μM
[6] = target: HDAC2 (Homo sapiens (Human), UniProt Q92769); test: HDAC in vitro enzymatic assay (fluorescence); conditions: read-out: IC50 HDAC2
[7] = target: HDAC6 (Homo sapiens (Human), UniProt Q9UBN7); test: HDAC in vitro enzymatic assay (fluorescence); format: biochemical
Protocol: Biological Tests Method for Measurement of Enzymatic Activity of HDACs Materials & Methods
All Examples were tested in HDAC1, 2, 3, 6 and 8 in vitro enzymatic assays. The assay principle is well known (Hauser et al. 2009, Bradner et al. 2010) and all necessary reagents like enzymes, substrates, developer and reference compounds are commercially available (see e.g. BPS Biosciences http://www.bpsbioscience.com/). A series of dilutions of the compounds were prepared with a top concentration of 200 μM (2 μM for HDAC6). The enzymatic reactions were conducted in a mixture containing assay buffer, bovine serum albumin, HDAC substrate, and a test compound. After enzymatic reaction, developer was added and after an additional incubation time, fluorescence intensity was measured at an excitation wavelength of 360 nm and an emission wavelength of 460 nm. A selection of the Examples were tested in a full HDAC panel containing HDAC1, 2, 3, 4, 5, 6, 7, 8, 9, 10 and 11 in vitro enzymatic assays. The tests were performed as above except that a series of dilutions of the compounds were prepared with a top concentration of 10 μM for all HDACs.

[8] = target: HDAC10 (Homo sapiens (Human), UniProt Q969S8); test: HDAC in vitro enzymatic assay (full HDAC panel); conditions: read-out: IC50 HDAC10, top concentration 10 μM
[9] = target: HDAC5 (Homo sapiens (Human), UniProt Q9UQL6); test: HDAC in vitro enzymatic assay (full HDAC panel); conditions: read-out: IC50 HDAC5, top concentration 10 μM
[10] = target: HDAC8 (Homo sapiens (Human), UniProt Q9BY41); test: HDAC in vitro enzymatic assay (fluorescence); conditions: read-out: IC50 HDAC8
[11] = target: HDAC1 (Homo sapiens (Human), UniProt Q13547); test: HDAC in vitro enzymatic assay (fluorescence)
[12] = system: U266 (multiple myelom); test: CellTiter-Blue cell viability assay; format: cell-based; conditions: Homo sapiens, read-out: IC50 U266 (cell viability)
Protocol: (§1) Method for Measurement of Cell Viability
(§2) The CellTiter-Blue® Cell Viability Assay (Promega) provides a homogeneous, fluorometric method for estimating the number of viable cells present in multi-well plates. The assay uses the indicator dye resazurin to measure the metabolic capacity of cells. Viable cells retain the ability to reduce resazurin into resorufin, which is highly fluorescent.
(§3) Stock solutions (10 mM in DMSO) of compounds were serially diluted 1:2 in 11 concentrations. 50 nL/well (10 mM compound stock in DMSO) was acoustically dispensed in 384-well assay plates with an acoustic dispenser (EDC Biosystems ATS-100AV). Final starting concentration in the assay was 20 μM (0.2% DMSO) for test compounds. […] After 72 hours, Celltiter Blue reagent (Promega #G8081) was diluted 1:10 with PBS and then added to wells (5 μL/well). The plates were incubated for 2 hours following addition of reagent. […] Results were calculated as % cell viability compared to background (cells treated with 0.2% DMSO).

[13] = system: AMO-1 (plasmacytom); test: CellTiter-Blue cell viability assay; format: cell-based; conditions: Homo sapiens, read-out: IC50 AMO-1 (cell viability)
Protocol: as §1, §2, §3

[14] = system: PBMC (peripheral blood mononuclear cells from healthy donors); test: CellTiter-Blue cell viability assay; format: cell-based; conditions: read-out: IC50 healthy PBMC (cell viability)
Protocol: as §1, §2, §3

[15] = system: PaCa2 (pancreatic); test: CellTiter-Blue cell viability assay; format: cell-based; conditions: read-out: IC50 PaCa2 (cell viability)
Protocol: as §1, §2, §3

[16] = full HDAC panel, top concentration 10 μM
[17] = top concentration 2 μM, read-out: IC50 values for inhibition of HDAC6
[18] = U-266, U266 cells, 72 hours of treatment
[19] = AMO1, AMO-1 cells, 72 hours of treatment
[20] = healthy PBMC, 72 hours of treatment
[21] = PaCa-2, PaCa2 cells, 72 hours of treatment
[22] = selectivity profiling, top concentration 200 μM
[23] = selectivity profiling, top concentration 2 μM, read-out: IC50 HDAC6
[24] = read-out: IC50 HDAC1, selectivity profiling, top concentration 200 μM

Sequence of HDAC1 (Q13547 whole entry): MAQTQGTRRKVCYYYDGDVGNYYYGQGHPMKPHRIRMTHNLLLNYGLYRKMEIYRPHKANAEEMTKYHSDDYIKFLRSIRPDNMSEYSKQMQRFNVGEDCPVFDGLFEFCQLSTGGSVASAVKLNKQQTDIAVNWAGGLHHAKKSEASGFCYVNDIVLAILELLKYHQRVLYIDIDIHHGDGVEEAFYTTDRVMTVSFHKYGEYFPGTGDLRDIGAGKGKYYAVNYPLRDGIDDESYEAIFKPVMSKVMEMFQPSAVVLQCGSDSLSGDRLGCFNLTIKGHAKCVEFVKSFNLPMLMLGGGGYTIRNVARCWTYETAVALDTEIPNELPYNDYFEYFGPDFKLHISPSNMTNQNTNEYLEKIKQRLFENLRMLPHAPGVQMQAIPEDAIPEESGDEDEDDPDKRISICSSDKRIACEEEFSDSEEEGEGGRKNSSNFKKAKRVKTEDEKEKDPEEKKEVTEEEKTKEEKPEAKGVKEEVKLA
Sequence of HDAC8 (Q9BY41 whole entry): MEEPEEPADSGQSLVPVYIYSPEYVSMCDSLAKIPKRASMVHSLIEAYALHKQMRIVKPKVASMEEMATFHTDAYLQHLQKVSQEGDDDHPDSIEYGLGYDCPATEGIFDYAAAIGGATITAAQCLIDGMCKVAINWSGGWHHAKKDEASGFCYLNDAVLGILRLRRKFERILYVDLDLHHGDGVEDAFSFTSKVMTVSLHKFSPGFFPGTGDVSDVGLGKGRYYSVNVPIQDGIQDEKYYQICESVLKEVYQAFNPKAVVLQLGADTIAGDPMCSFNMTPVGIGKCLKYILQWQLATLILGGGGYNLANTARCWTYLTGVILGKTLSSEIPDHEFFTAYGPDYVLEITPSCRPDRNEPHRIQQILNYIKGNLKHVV
Sequence of HDAC3 (O15379 whole entry): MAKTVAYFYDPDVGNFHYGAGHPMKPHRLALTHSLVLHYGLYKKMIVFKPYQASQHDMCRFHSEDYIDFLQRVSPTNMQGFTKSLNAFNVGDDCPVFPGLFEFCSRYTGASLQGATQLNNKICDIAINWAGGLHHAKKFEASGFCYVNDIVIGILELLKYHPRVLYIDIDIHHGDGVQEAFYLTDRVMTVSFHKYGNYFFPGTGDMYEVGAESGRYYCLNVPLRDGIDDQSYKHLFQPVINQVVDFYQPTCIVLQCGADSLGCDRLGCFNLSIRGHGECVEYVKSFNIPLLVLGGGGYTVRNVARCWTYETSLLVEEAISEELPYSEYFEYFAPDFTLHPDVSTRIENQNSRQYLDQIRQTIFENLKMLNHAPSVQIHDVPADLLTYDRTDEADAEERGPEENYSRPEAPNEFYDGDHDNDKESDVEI
Sequence of HDAC3 (Q9Y618 395-489 partner): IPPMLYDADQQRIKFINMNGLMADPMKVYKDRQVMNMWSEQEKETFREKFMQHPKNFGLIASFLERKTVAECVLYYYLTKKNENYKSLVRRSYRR
Sequence of HDAC2 (Q92769 whole entry): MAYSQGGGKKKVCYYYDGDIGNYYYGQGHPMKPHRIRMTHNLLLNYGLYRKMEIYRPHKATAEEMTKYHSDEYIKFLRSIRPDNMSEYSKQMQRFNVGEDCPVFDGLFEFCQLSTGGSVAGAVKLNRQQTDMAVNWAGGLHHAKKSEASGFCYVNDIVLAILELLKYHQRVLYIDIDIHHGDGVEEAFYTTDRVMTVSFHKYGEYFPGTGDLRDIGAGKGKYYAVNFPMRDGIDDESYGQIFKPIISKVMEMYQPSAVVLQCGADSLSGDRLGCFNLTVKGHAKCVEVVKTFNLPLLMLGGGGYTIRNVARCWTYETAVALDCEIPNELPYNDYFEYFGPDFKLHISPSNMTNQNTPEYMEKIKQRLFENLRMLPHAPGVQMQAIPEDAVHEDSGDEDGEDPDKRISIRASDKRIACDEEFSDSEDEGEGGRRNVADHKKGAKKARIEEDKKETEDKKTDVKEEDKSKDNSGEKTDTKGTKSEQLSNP
Sequence of HDAC9 (Q9UKV0 whole entry): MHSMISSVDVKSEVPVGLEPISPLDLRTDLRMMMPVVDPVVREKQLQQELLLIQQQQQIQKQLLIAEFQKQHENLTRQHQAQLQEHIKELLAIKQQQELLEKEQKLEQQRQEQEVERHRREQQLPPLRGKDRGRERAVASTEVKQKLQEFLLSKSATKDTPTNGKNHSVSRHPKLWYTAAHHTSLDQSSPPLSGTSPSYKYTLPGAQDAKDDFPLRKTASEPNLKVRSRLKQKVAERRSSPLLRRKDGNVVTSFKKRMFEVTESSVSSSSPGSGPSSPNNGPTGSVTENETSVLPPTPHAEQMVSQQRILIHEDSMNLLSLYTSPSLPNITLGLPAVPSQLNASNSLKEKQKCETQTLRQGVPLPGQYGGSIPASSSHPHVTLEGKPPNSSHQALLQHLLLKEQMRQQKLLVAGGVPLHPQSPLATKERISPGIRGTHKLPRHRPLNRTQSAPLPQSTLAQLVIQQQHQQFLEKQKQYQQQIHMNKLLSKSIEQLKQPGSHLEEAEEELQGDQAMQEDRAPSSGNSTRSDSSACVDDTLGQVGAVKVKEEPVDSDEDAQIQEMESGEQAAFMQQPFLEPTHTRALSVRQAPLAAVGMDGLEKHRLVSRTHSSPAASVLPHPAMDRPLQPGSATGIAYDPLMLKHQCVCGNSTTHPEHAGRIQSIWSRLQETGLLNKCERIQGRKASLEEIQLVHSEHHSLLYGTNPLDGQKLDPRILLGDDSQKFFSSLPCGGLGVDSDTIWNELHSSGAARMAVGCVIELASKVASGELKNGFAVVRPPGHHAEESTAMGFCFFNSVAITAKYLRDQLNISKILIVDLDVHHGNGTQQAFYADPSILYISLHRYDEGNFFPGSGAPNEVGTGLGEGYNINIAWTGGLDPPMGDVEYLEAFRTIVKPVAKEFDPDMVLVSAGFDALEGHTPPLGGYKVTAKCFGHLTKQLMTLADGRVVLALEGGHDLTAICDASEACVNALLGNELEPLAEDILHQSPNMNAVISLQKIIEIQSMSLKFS
Sequence of HDAC11 (Q96DB2 whole entry): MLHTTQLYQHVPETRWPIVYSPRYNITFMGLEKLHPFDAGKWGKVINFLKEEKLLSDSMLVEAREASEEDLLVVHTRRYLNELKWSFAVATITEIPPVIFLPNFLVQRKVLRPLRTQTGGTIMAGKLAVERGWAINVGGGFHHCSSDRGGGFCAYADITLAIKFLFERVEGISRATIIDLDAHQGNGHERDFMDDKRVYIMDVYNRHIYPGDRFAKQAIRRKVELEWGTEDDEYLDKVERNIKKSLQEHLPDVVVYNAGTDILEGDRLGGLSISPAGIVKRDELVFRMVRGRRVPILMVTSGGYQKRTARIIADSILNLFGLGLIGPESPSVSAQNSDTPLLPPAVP
Sequence of HDAC7 (Q8WUI4 whole entry): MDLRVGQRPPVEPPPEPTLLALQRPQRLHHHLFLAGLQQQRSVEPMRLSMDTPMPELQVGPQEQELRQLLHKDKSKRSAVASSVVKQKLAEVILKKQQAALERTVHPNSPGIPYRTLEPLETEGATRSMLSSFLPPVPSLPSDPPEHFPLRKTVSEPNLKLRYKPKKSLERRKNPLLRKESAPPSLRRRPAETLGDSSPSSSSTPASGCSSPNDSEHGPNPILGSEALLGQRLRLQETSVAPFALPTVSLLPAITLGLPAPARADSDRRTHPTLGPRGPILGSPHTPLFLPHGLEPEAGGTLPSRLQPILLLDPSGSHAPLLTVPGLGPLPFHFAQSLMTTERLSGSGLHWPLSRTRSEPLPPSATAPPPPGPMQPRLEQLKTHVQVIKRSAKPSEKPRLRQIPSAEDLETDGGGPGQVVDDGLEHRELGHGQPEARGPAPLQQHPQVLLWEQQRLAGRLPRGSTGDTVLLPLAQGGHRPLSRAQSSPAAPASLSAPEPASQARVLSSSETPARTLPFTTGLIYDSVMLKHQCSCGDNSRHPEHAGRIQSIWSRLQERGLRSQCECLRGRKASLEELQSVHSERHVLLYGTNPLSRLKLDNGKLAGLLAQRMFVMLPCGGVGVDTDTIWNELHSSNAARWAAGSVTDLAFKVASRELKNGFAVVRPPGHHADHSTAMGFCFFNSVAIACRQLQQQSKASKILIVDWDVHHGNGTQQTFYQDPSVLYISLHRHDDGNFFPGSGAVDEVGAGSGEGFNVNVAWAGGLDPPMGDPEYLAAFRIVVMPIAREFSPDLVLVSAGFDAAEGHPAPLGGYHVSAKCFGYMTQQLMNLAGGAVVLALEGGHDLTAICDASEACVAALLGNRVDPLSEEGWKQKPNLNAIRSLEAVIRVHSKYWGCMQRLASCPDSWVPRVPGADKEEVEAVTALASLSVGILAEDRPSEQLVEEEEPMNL
Sequence of HDAC10 (Q969S8 whole entry): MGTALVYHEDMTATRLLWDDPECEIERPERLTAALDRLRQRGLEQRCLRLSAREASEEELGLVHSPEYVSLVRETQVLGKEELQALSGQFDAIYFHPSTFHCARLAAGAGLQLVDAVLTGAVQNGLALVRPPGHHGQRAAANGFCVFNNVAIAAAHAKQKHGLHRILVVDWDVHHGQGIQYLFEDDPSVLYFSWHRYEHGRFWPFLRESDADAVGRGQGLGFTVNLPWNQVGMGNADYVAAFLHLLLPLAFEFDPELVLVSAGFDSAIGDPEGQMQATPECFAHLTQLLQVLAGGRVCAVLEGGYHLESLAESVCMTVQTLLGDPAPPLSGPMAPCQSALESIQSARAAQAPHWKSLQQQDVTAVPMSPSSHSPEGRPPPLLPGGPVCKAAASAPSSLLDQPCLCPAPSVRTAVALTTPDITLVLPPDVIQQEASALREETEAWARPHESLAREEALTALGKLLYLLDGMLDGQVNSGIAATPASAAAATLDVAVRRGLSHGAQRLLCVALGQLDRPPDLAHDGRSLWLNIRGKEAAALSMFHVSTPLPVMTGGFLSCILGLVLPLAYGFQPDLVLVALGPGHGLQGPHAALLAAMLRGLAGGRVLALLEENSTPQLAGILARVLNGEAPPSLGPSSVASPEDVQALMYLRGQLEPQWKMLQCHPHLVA

- pIC50 [12, 18]: 5.68
Compound: COc1ccc2cc(-c3nc4ccc(C(=O)NO)cc4[nH]3)ccc2c1 [Example 10, N-hydroxy-2-(6-methoxynaphthalen-2-yl)-1H-benzimidazole-6-carboxamide]
- pIC50 [13, 19]: 5.66
- pIC50 [14, 20]: < 4.70
- pIC50 [15, 21]: 5.92

- pIC50 [12, 18]: 5.54
- pIC50 [7, 17]: 7.35
Compound: O=C(NO)c1ccc2nc(-c3ccc(Br)cc3)[nH]c2c1 [Example 3, 2-(4-bromophenyl)-N-hydroxy-1H-benzimidazole-6-carboxamide]
- pIC50 [13, 19]: 5.20
- pIC50 [14, 20]: < 4.70
- pIC50 [15, 21]: 5.22

- pIC50 [12, 18]: 6.31
Compound: O=C(NO)c1ccc2nc(-c3ccc(-c4cccc(Cl)c4)cc3)[nH]c2c1 [Example 151, 2-(3′-chlorobiphenyl-4-yl)-N-hydroxy-1H-benzimidazole-6-carboxamide]
- pIC50 [13, 19]: 5.72
- pIC50 [14, 20]: < 4.70
- pIC50 [15, 21]: 6.00

- pIC50 [12, 18]: 5.70
Compound: O=C(NO)c1ccc2nc(-c3ccc(Oc4ccccc4)cc3)[nH]c2c1 [Example 8, N-hydroxy-2-(4-phenoxyphenyl)-1H-benzimidazole-6-carboxamide]
- pIC50 [13, 19]: 5.64
- pIC50 [14, 20]: < 4.70
- pIC50 [15, 21]: 5.77

Second part, the compound before the results:

Compound: Cc1cc(O)cc(C)c1-c1nc2ccc(C(=O)NO)cc2[nH]1 [Example 15, N-hydroxy-2-(4-hydroxy-2,6-dimethylphenyl)-1H-benzimidazole-6-carboxamide]
- pIC50 [1]: < 5.00
- pIC50 [2, 16]: 5.09
- pIC50 [3]: < 5.00
- pIC50 [4]: 5.16
- pIC50 [5]: 5.52
- pIC50 [6, 16]: < 5.00
- pIC50 ([7]; full HDAC panel, top concentration 10 μM, read-out: IC50 HDAC6): 7.16
- pIC50 [7, 17]: 7.16
- pIC50 [8]: < 5.00
- pIC50 [9]: < 5.00
- pIC50 [10, 16]: < 5.00
- pIC50 ([11]; read-out: IC50 HDAC 1, full HDAC panel, top concentration 10 μM): < 5.00

Compound: CC(C)c1ccc(-c2nc3ccc(C(=O)NO)cc3[nH]2)cc1 [Example 50, N-hydroxy-2-[4-(1-methylethyl)phenyl]-1H-benzimidazole-6-carboxamide]
- pIC50 [2, 22]: 5.47
- pIC50 ([12]; U-266, 72 h): 6.24
- pIC50 ([13]; AMO1, 72 h): 5.70
- pIC50 ([14]; PBMC, 72 h): < 4.70
- pIC50 ([15]; PaCa-2, 72 h): 6.54
- pIC50 [6, 22]: 4.49
- pIC50 [7, 23]: 7.85
- pIC50 [7, 17]: 7.85
- pIC50 [10, 22]: 6.38
- pIC50 [11, 24]: 5.48

Compound: O=C(NO)c1ccc2nc(-c3ccc(-c4ccc(CN5CCOCC5)cc4)cc3)[nH]c2c1 [Example 190, N-hydroxy-2-[4′-(morpholin-4-ylmethyl)biphenyl-4-yl]-1H-benzimidazole-6-carboxamide trifluoroacetate]
- pIC50 [2, 22]: 6.04
- pIC50 ([12]; U-266, 72 h): 5.41
- pIC50 ([13]; AMO1, 72 h): 5.09
- pIC50 ([14]; PBMC, 72 h): < 4.70
- pIC50 ([15]; PaCa-2, 72 h): 5.64
- pIC50 [6, 22]: 4.89
- pIC50 [7, 23]: 7.68
- pIC50 [7, 17]: 7.68
- pIC50 [10, 22]: 7.10
- pIC50 [11, 24]: 5.40

Compound: O=C(NO)c1ccc2nc(-c3ccc(-c4ccccc4)cc3)[nH]c2c1 [Example 6, 2-biphenyl-4-yl-N-hydroxy-1H-benzimidazole-6-carboxamide]
- pIC50 [2, 22]: 5.68
- pIC50 ([12]; U-266, 72 h): 6.27
- pIC50 ([13]; AMO1, 72 h): 5.77
- pIC50 ([14]; PBMC, 72 h): < 4.70
- pIC50 ([15]; PaCa-2, 72 h): 6.39
- pIC50 [6, 22]: 3.80
- pIC50 [7, 23]: 7.82
- pIC50 [7, 17]: 7.82
- pIC50 [10, 22]: 6.33
- pIC50 [11, 24]: 4.29
